Reference: patent US9839701B2, “Aromatic amino acid derivative and positron emission topography (PET) probe using the same” (OSAKA UNIVERSITY, priority 2013, dated 2017)

What was measured:
human LAT1 = molecular target: T1, human LAT1 (Homo sapiens, UniProt Q01650); assay: Promoting effect on amino acid efflux from human LAT1 stably expressing cell line; type: cell-based
T1 construct: expressed in transfected cells
Experimental: In the same manner as in Example 3, the human LAT1 stably expressing cell line and the human LAT2 stably expressing cell line were seeded on separate collagen-coated 24-well plates, and after 48 hours, the cells were washed with an uptake buffer prewarmed at 37° C. An uptake buffer supplemented with 1 μM of [^14C]L-leucine or [^14C]L-alanine was added to each well, and [^14C]L-leucine or [^14C]L-alanine uptake by the cells was allowed to proceed at 37° C. for 10 minutes. […] The radioactivity in each supernatant was measured as the radioactivity of the amino acid released from the cells. Subsequently, 500 μL of 0.1 M NaOH was added to each well for cell lysis, 20 μL of the lysate was used for the measurement of the protein concentration, and the remaining lysate was used for the measurement of the residual radioactivity in the cells. The sum of the residual radioactivity and the released radioactivity in each experiment was checked to confirm that there was no great difference in the total radioactivity incorporated into the cells at the preloading among the experiments. […]
Based on the measured values of amino acid efflux at the indicated concentrations of each compound, the Km value for amino acid efflux from the human LAT1 stably expressing cell line and the Km value for amino acid efflux from the human LAT2 stably expressing cell line were calculated and shown in Table 5. […]

[1] = tested on: tumor derived from human pancreatic carcinoma cell line MIAPaCa-2; assay: Accumulation in subcutaneous tumor of nude mouse, HPLC detection after PITC labeling; type: in vivo; settings: 100 nmol via tail vein, tumor excised 1 hour after administration, FIG. 3
Experimental: A tumor derived from subcutaneously implanted MIAPaCa-2 cells in a nude mouse was excised, and 0.1 g of the tumor was subcutaneously transplanted into a 6-week-old female nude mouse (BALB/cAJc1-nu). One month after the transplantation, the compound of Example 1 was dissolved in physiological saline at a concentration of 1 mM, and 0.1 mL (100 nmol) of the solution or 0.1 mL of physiological saline was administered from the tail vein. One hour after the administration, the tumor was excised, the amino acids in the tumor tissue were labeled with phenylisothiocyanate (PITC), and the labeled compound was detected by HPLC for evaluation of the accumulation.

T1 sequence (Q01650 whole entry): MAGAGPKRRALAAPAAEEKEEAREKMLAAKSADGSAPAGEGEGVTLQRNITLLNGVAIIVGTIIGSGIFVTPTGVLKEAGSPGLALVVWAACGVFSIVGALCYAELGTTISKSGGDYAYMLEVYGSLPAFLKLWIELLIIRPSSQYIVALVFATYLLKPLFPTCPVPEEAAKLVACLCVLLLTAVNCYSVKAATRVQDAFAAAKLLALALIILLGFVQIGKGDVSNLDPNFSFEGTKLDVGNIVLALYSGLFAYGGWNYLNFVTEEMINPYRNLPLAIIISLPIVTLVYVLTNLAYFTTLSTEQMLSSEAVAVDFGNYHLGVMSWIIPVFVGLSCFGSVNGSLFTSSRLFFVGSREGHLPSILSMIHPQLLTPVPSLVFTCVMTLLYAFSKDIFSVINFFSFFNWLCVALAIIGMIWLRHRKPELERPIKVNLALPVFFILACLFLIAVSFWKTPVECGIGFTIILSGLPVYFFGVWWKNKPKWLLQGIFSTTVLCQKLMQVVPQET
T1 sequence (P08195 102-630 partner): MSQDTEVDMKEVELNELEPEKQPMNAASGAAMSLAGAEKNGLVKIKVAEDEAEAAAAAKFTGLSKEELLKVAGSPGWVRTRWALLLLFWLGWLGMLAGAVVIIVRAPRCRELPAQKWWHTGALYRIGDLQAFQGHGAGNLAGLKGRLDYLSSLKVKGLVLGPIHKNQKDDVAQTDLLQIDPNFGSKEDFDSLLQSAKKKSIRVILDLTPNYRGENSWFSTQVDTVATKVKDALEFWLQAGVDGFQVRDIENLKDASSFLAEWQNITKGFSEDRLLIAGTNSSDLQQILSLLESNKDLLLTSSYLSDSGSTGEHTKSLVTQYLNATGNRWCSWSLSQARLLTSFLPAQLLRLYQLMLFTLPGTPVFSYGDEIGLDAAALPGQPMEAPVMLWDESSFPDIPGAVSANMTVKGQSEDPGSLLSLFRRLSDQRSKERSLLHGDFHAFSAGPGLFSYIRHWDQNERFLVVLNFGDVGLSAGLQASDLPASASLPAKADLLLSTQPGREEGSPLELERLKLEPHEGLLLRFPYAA

NC(Cc1cc(OCCF)ccc1I)C(=O)O (stereo not drawn) [Example 1, 2-amino-3-(5-(2-fluoroethoxy)-2-iodophenyl)propanoic acid]
Promoting effect on amino acid efflux via human LAT1, compared with FAMT (human LAT1; 10 μM, 1 min, FIG. 2): twice or more higher than that of FAMT | Affinity for human LAT1 relative to FAMT (human LAT1; from Km values): ≥ 10 times | Accumulation in tumor [1]: accumulated intensively in the tumor
